The term IC50 denotes the concentration that gives 50% inhibition.

T1 sequence (P27958 1027-1657): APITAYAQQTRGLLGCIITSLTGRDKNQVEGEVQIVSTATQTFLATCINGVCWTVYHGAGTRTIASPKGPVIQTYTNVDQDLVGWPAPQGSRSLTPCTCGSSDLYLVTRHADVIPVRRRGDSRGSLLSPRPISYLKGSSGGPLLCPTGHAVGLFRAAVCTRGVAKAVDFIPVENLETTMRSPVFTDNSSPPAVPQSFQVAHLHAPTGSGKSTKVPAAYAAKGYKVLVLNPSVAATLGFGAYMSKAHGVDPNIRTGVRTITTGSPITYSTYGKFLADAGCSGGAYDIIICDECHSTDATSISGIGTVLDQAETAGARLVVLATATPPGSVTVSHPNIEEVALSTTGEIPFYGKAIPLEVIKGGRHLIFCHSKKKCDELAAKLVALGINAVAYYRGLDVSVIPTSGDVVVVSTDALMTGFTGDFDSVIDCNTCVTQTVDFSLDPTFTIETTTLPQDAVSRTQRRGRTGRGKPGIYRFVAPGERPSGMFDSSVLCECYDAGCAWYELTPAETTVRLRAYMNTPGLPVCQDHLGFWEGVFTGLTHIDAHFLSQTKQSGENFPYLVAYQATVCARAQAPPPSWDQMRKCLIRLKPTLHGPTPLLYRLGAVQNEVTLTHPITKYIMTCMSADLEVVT

One assay concerns the target T1, full-length NS3/NS4A-2 (HCV NS3 protease) (Hepatitis C virus genotype 1a, UniProt P27958).
T1 construct: Recombinant E. coli or Baculovirus full-length NS3 was diluted to 3.33 μM with assay buffer; made in house; host or cells: E. coli or baculovirus (BV) expression system
The experiment in a line: NS3-NS4 protease assay / NS3 inhibition assay (RETS1 substrate, fluorescence kinetic read). The format is biochemical. The conditions noted are these: Table 24; read-out: NS3-NS4 IC50. On the procedure: NS3 complex formation with NS4A-2.
Recombinant E. coli or Baculovirus full-length NS3 was diluted to 3.33 μM with assay buffer and transferred material to an eppendorf tube and place in water bath in 4° C. refrigerator. The appropriate amount of NS4A-2 to 8.3 mM in assay buffer was added to equal the volume of NS3 in step 2.1.1 (conversion factor—3.8 mg/272 μL assay buffer). The material was transferred to an eppendorf tube and place in water bath in 4° C. refrigerator.
After equilibration to 4° C., equal volumes of NS3 and NS4A-2 solutions were combined in an eppendorf tube, mix gently with a manual pipettor, and incubate mixture for 15 minutes in the 4° C. water bath. Final concentrations in the mixture are 1.67 μM NS3, 4.15 mM NS4A-2 (2485-fold molar excess NS4A-2).
After 15 minutes at 4° C., the NS3/NS4A-2 eppendorf tube was removed and place it in a room temperature water bath for 10 minutes. NS3/NS4A-2 was alliquoted at appropriate volumes and store at −80° C. (E. coli NS3 run at 2 nM in assay, aliquot at 25 μL. BV NS3 run at 3 nM in assay, aliquot at 30 μL).
Sample compounds were dissolved to 10 mM in DMSO then diluted to 2.5 mM (1:4) in DMSO. Typically, compounds were added to an assay plate at 2.5 mM concentration, yielding upon dilution a starting concentration of 50 microM in the assay inhibition curve. Compounds were serial diluted in assay buffer to provide test solutions at lower concentrations.
The E. coli. NS3/NS4A-2 was diluted to 4 nM NS3 (1:417.5 of 1.67 μM stock−18 μL 1.67 μM stock+7497 μL assay buffer). The BV NS3/NS4A-2 was diluted to 6 nM NS3 (1:278.3 of 1.67 μM stock−24 μL 1.67 μM stock+6655 μL assay buffer). Using the manual multichannel pipettor, careful not to introduce bubbles into the plate, add 50 μL assay buffer to wells A01-H01 of a black Costar 96-well polypropylene storage plate.
Using the manual multichannel pipettor, careful not to introduce bubbles into the plate, add 50 μL of diluted NS3/NS4A-2 from step 2.2.6 to wells A02-H12 of plate in step 2.2.7. Using the manual multichannel pipettor, careful not to introduce bubbles into the plate, transfer 25 μL of the wells in drug dilution plate in step 2.2.5 to corresponding wells in assay plate in step 2.2.8. Change tips on multichannel pipettor for each row of compounds transferred. Using the manual multichannel pipettor, careful not to introduce bubbles into the plate, mix the wells from the assay plate in step 2.2.9 by aspirating and dispensing 35 μL of the 75 μL in each well five times. Change tips on multichannel pipettor for each row of wells mixed. Cover plate with a polystyrene plate lid and pre-incubate the plate from step 2.2.10 containing NS3 protease and sample compounds 10 minutes at room temperature. While plate from step 2.2.11 is pre-incubating, dilute RETS1 substrate in a 15 mL polypropylene centrifuge tube. Dilute RETS1 substrate to 8 μM (1:80.75 of 646 μM stock−65 μL 646 μM stock+5184 μL assay buffer).
After the plate in step is done pre-incubating, and using the manual multichannel, add 25 μL of substrate to all wells on the plate. Quickly mix the plate as in step 2.2.10, mixing 65 μL of the 100 μL in the wells.
Read the plate in kinetic mode on the Molecular Devices SpectraMax Gemini XS plate reader. Reader settings: Read time: 30 minutes, Interval: 36 seconds, Reads: 51, Excitation λ: 335 nm, Emission λ: 495 nm, cutoff: 475 nm, Automix: off, Calibrate: once, PMT: high, Reads/well: 6, Vmax pts: 21 or 28/51 depending on length of linearity of reaction
IC50 s are determined using a four parameter curve fit equation, and converted to Ki's using the following Km's: • Full-length E. coli NS3—2.03 μM • Full-length BV NS3—1.74 μM where Ki=IC50/(1+[S]/Km)) • Quantitation by ELISA of the selectable marker protein, Neomycin phosphotransferase II (NPTII) in the HCV Sub-Genomic Replicon, GS4.3
Consider `CC(C)(C)OC(=O)N[C@H]1CCCCC/C=C\[C@@H]2C[C@@]2(C(=O)NCC2CC2)NC(=O)[C@@H]2C[C@@H](OC(=O)N3Cc4ccccc4C3)CN2C1=O` [Compound 2501, (1S,4R,6S,14S,18R)-1,3-Dihydro-isoindole-2-carbonyloxylic acid 14-tert-butoxycarbonylamino-4-cyclopropylmethanaminocarbonyl-2,15-dioxo-3,16-diaza-tricyclo[14.3.0.0^4,6]nonadec-7-ene-18-yl ester], for which the IC50 was greater than 10 µM.

The assay is the same for the next values; noted with them: Table 25; read-out: NS3-NS4 IC50.
Consider `CC(C)(C)OC(=O)N[C@H]1CCCCC/C=C\[C@@H]2C[C@@]2(C(=O)N[S@@+]([O-])C(C)(C)C)NC(=O)[C@@H]2C[C@@H](OC(=O)N3Cc4ccccc4C3)CN2C1=O` [Compound 2601, (1S,4R,6S,14S,18R)-1,3-Dihydro-isoindole-2-carbonyloxylic acid 14-tert-butoxycarbonylamino-4-((S)-2-methylpropane-2-sulfinyl)aminocarbonyl-2,15-dioxo-3,16-diaza-tricyclo[14.3.0.0^4,6]nonadec-7-ene-18-yl ester], for which the IC50 was greater than 10 µM.

The same assay, now with this note: recombinant E. coli or Baculovirus full-length NS3 with NS4A-2; read-out: NS3-NS4 IC50.
For `CC(C)(C)OC(=O)N[C@H]1CCCCC/C=C\[C@@H]2C[C@@]2(C(=O)NS(=O)(=O)Nc2ccc(C(F)(F)F)cc2)NC(=O)[C@@H]2CCCN2C1=O` [Compound 2235], the half-inhibitory concentration (IC50) was less than 1 µM. Regarding `CC(C)(C)OC(=O)NC1CCCCCCCC=CC2CC2(C(=O)NS(=O)(=O)c2cc(Cl)cc(Cl)c2)NC(=O)C2CCCN2C1=O` (centres unmarked) [Compound 2108], the IC50 was less than 10 µM. Consider `CC(C)(C)OC(=O)N[C@H]1CCCCC/C=C\[C@@H]2C[C@@]2(C(=O)NS(=O)(=O)c2cccc(C(F)(F)F)c2)NC(=O)[C@@H]2CCCN2C1=O` [Compound 2149], for which the 50% inhibitory concentration (IC50) is less than 10 µM.

For the compound `CC(C)(C)OC(=O)N[C@H]1CCCCC/C=C\[C@@H]2C[C@@]2(C(=O)NS(=O)(=O)N2CCC2)NC(=O)[C@@H]2CCCN2C1=O` [Compound 2206], the IC50 was less than 10 µM.

As to `CC(C)(C)OC(=O)N[C@H]1CCCCC/C=C\[C@@H]2C[C@@]2(C(=O)NS(=O)(=O)c2ccc(Br)cc2)NC(=O)[C@@H]2CCCN2C1=O` [Compound 2131], the concentration for half-maximal inhibition (IC50) is less than 10 µM.

Regarding `CC(C)(C)OC(=O)N[C@H]1CCCCC/C=C\[C@@H]2C[C@@]2(C(=O)NS(=O)(=O)NCCc2ccc3ccccc3c2)NC(=O)[C@@H]2CCCN2C1=O` [Compound 421], the IC50 was greater than 10 µM.

For the compound `CC(C)(C)OC(=O)N[C@H]1CCCCC/C=C\[C@@H]2C[C@@]2(C(=O)NS(=O)(=O)C2(C)CC2)NC(=O)[C@@H]2CCCN2C1=O` [Compound 300, (1S,4R,6S,14S) tert-butyl 4-Cyclopropanesulfonylaminocarbonyl-2,15-dioxo-3,16-diaza-tricyclo[14.3.0.0^4,6]nonadec-7-ene-14-yl carbamate], the 50% inhibitory concentration (IC50) is less than 1 µM. Consider `Cc1noc(C)c1S(=O)(=O)NC(=O)[C@@]12C[C@H]1/C=C\CCCCC[C@H](NC(=O)OC1CCCC1)C(=O)N1C[C@H](OC(=O)N3CCc4ccccc4C3)C[C@H]1C(=O)N2` [Compound 187], for which the half-inhibitory concentration (IC50) is less than 0.1 µM. Turning to `O=C1N[C@]2(C(=O)NS(=O)(=O)C3CC3)C[C@H]2/C=C\CCCCC[C@H](Nc2c(N3C4CCC3CC4)c(=O)c2=O)C(=O)N2C[C@H](OC(=O)N3Cc4cccc(F)c4C3)C[C@@H]12` [Compound 199], the IC50 is less than 0.1 µM. On to `O=C(N[C@H]1CCCCC/C=C\[C@@H]2C[C@@]2(C(=O)NS(=O)(=O)Nc2ccc(Cl)cc2)NC(=O)[C@@H]2CCCN2C1=O)C1CCC1` [Compound 427], for which the IC50 was greater than 10 µM.

On to `CC(C)(C)OC(=O)N[C@H]1CCCCC/C=C\[C@@H]2C[C@@]2(C(=O)NS(=O)(=O)NCCc2cccc(Cl)c2)NC(=O)[C@@H]2CCCN2C1=O` [Compound 411], for which the IC50 is greater than 10 µM. As for `CNS(=O)(=O)NC(=O)[C@@]12C[C@H]1/C=C\CCCCC[C@H](NC(=O)OC(C)(C)C)C(=O)N1CCC[C@H]1C(=O)N2` [Compound 2213], the IC50 is less than 10 µM. Same read-out and setting: then `CC(C)(C)OC(=O)N[C@H]1CCCCC/C=C\[C@@H]2C[C@@]2(C(=O)NS(=O)(=O)OCCc2ccccc2)NC(=O)[C@@H]2CCCN2C1=O` [Compound 801], with less than 10 µM; and `CC(C)(C)OC(=O)N[C@H]1CCCCC/C=C\[C@@H]2C[C@@]2(C(=O)NS(N)(=O)=O)NC(=O)[C@@H]2CCCN2C1=O` [Compound 2203], with less than 1 µM; and `CC(C)(C)OC(=O)N[C@H]1CCCCC/C=C\[C@@H]2C[C@@]2(C(=O)NS(=O)(=O)Nc2ccncc2)NC(=O)[C@@H]2CCCN2C1=O` [Compound 407], with greater than 10 µM.

For the compound `CC(C)(C)OC(=O)N[C@H]1CCCCC/C=C\[C@@H]2C[C@@]2(C(=O)NS(=O)(=O)Nc2ccccc2Cl)NC(=O)[C@@H]2CCCN2C1=O` [Compound 2233], the IC50 was less than 1 µM. With `CC(C)(C)OC(=O)N[C@H]1CCCCC/C=C\[C@@H]2C[C@@]2(C(=O)NS(=O)(=O)NCc2ccccn2)NC(=O)[C@@H]2CCCN2C1=O` [Compound 425], the IC50 is greater than 10 µM. Regarding `CC1CCCC(C)N1S(=O)(=O)NC(=O)[C@@]12C[C@H]1/C=C\CCCCC[C@H](NC(=O)OC(C)(C)C)C(=O)N1CCC[C@H]1C(=O)N2` (some centres unmarked) [Compound 2223], the IC50 was less than 1 µM. In the case of `CN(C)c1ccc(NS(=O)(=O)NC(=O)[C@@]23C[C@H]2/C=C\CCCCC[C@H](NC(=O)OC(C)(C)C)C(=O)N2CCC[C@H]2C(=O)N3)cc1` [Compound 2231], the IC50 is less than 10 µM. `CC(C)(C)OC(=O)N[C@H]1CCCCC/C=C\[C@@H]2C[C@@]2(C(=O)NS(=O)(=O)C(C)(C)C)NC(=O)[C@@H]2CCCN2C1=O` [Compound 303]: the IC50 was greater than 10 µM. As for `CC(C)(C)OC(=O)N[C@H]1CCCCC/C=C\[C@@H]2C[C@@]2(C(=O)O)NC(=O)C2Cc3ccccc3CN2C1=O` (stereo partly drawn) [Compound 2001, (1aS,9S,19aR,Z)-9-(tert-Butoxycarbonyl)-10,18-dioxo-1a,4,5,6,7,8,9,10,12,17,17a,18,19,19a-tetradecahydro-1H-11,14-diaza-bicyclo[13.1.0]hexadeca-1(15), 2-dieno[11,12-b]isoquinoline-19a-carboxylic acid], the IC50 is greater than 10 µM. As for `O=C(N[C@H]1CCCCC/C=C\[C@@H]2C[C@@]2(C(=O)NS(=O)(=O)Nc2ccc(Cl)cc2)NC(=O)[C@@H]2CCCN2C1=O)OC1CCCC1` [Compound 420], the IC50 is greater than 10 µM. With `CC(C)(C)OC(=O)N[C@H]1CCCCC/C=C\[C@@H]2C[C@@]2(C(=O)NS(=O)(=O)C2(Cc3ccccc3)CC2)NC(=O)[C@@H]2CCCN2C1=O` [Compound 301], the IC50 is less than 10 µM.

As for `C=CCN(C)S(=O)(=O)NC(=O)[C@@]12C[C@H]1/C=C\CCCCC[C@H](NC(=O)OC(C)(C)C)C(=O)N1CCC[C@H]1C(=O)N2` [Compound 412], the IC50 is less than 10 µM. Turning to `CC(C)(C)OC(=O)N[C@H]1CCCCC/C=C\[C@@H]2C[C@@]2(C(=O)NS(=O)(=O)c2cccc(C#N)c2)NC(=O)[C@@H]2CCCN2C1=O` [Compound 2152], the IC50 is less than 10 µM. As to `C=CCNS(=O)(=O)NC(=O)[C@@]12C[C@H]1/C=C\CCCCC[C@H](NC(=O)OC(C)(C)C)C(=O)N1CCC[C@H]1C(=O)N2` [Compound 2238], the IC50 is less than 1 µM.

Consider `CC[C@@H]1C[C@H]2C(=O)N[C@]3(C(=O)NS(=O)(=O)Nc4ccc(Cl)cc4)C[C@H]3/C=C\CCCCC[C@H](NC(=O)C3CC3)C(=O)N2C1` [Compound 429], for which the IC50 was less than 10 µM.

These data come from US7829665B2 (priority 2005, dated 2010).
